Experimental data taken from US20230382904A1, “SUBSTITUTED 4-([1,2,4]TRIAZOLO[1,5-a]PYRIDIN-6-YL)THIOPHENE-2-CARBOXAMIDE DERIVATIVES AND USE THEREOF” (The Johns Hopkins University, priority 2020, published 2023).

Assays:
DLK = DLK (Homo sapiens (Human), UniProt Q12852); assay: DLK biochemical assay (TR-FRET, MKK7 phosphorylation)
Outline: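 Catalytic-domain DLK (10 nM) phosphorylates His-MKK7 (15 nM) with 60 μM ATP, 90 min at RT, in pH 7.5 HEPES buffer. Phospho-T275/S277 read by TR-FRET (Eu anti-phospho donor, XL665 anti-His acceptor) after 16 h detection, at 37° C. in 1536 or 4° C. in 384 format.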

LZK = LZK (Homo sapiens (Human), UniProt O43283); assay: LZK biochemical assay (TR-FRET, MKK7 phosphorylation)
Chain of LZK (O43283 168-409): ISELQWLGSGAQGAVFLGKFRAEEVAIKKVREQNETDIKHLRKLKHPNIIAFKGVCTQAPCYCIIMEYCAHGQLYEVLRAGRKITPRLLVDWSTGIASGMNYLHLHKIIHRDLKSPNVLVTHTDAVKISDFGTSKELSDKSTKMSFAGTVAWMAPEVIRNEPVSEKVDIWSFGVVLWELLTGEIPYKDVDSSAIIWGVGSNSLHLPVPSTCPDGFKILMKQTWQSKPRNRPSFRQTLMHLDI
Outline: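 Catalytic-domain LZK (10 nM) phosphorylated His-MKK7 (15 nM) with 15 μM ATP for 90 min at RT. Phospho-T275/S277 detected by Eu-anti-phospho-MKK7/XL665-anti-His TR-FRET after 16 h at 32° C, using the 665/Eu ratio. Buffer: 50 mM Hepes pH 7.5, 10 mM MgCl2, 1 mM DTT.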

[1] = Ischemia/Reperfusion (I/R) rat model, optokinetic tracking; type: in vivo; conditions: prophylactic setting, after a 20 minute ischemic event
Description: The animals were placed under anesthesia (Rompun (Xylazin als Xylazinhydrochlorid) 2%, Bayer, PZN-1320422, Ketavet (Ketaminhydrochlorid) 100 mg/mL, Pfizer, PZN-3151811) and the pupil on the right eye dilated (Neosynephrin-POS 5% Augentropfen, […], PZN 0828584).
When anesthetized, local anesthetic eye drops (Alcaine, lokalanästhetische Augentropfen, Alcon, 37516058) were applied to the right eye. The rat is on the left side. After a short exposure time, a 30G cannula was inserted laterally into the anterior chamber of the eye. To do this, the eye was fixed with a cotton swab so that it emerged from the eye socket. Once the cannula was placed, the eye was carefully released. The 30G cannula was connected via infusion set to a bag of isotonic infusion solution. The infusion bag hung in a pressure cuff. The pressure was regulated via the pressure cuff and the manometer. For the model, the intraocular pressure is increased to 120 mm Hg. The duration is 20 min. If the cannula fits correctly, the eye turns white, because the blood circulation was interrupted. During treatment, the rats lied on a warm mat (level 2). It was necessary to observe the anesthetic state of the animal. […]
For the optomotry readout only the spatial resolution is measured (spatial frequency). Both eyes were measured. […]

[2] = In vitro PhysChem properties; type: physicochemical
[3] = In vitro PK properties (metabolic stability); type: in vitro ADME
Description: Metabolic stabilities in rat hepatocytes were determined by incubating the compounds at low concentrations (e.g., below 1 μM) and at low cell numbers (e.g., at 1×10^6 cells/ml) to ensure linear kinetics. 7 time-points from the incubation mixture were withdrawn for analysis to define the half-life of the compound. From that half-life the intrinsic clearance in hepatocytes was calculated and used further to extrapolate the blood clearance (using the well-stirred model) and the corresponding Fmax value (maximum expected bioavailability after first pass of the liver) for the compounds. The CL and Fmax values reflect Phase I and II metabolism in hepatocytes. To minimize the influence of organic solvents in the incubation mixture their content was limited to max. 1% for ACN or max. 0.2% for DMSO. The values given in row 5 in the table in FIG. 1 are rat hepatocytes CLblood [L/h/kg] and rat hepatocytes Fmax [%].

Chain of DLK (Q12852 1-520): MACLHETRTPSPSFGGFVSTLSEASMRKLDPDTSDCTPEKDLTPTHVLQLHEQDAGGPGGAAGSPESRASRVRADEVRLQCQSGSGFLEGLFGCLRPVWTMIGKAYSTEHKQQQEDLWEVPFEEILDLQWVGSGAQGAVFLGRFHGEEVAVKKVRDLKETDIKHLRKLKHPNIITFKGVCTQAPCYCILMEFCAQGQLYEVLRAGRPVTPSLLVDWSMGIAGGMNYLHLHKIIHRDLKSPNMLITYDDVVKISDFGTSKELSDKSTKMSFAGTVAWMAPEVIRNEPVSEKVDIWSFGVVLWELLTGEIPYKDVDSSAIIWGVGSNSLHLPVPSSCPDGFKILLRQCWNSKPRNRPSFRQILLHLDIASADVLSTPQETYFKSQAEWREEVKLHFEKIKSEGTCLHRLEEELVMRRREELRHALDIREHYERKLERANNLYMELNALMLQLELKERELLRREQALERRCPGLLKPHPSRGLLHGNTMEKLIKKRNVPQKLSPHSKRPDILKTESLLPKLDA

IC50 (DLK): 3.2 nM
IC50 (LZK): 29 nM
chemical stability [2]: chemically stable
metabolic stability [3]: metabolically labile
Structure (SMILES): CC[C@H](NC(=O)c1cc(-c2cc(C(=O)N[C@@H](C)CC)c3nc(N)nn3c2)cs1)c1ccc(F)cc1 [Compound 112, 2-Amino-N-[(2S)-butan-2-yl]-6-(5-{[(1S)-1-(4-fluorophenyl)propyl]carbamoyl}thiophen-3-yl)[1,2,4]triazolo[1,5-a]pyridine-8-carboxamide]
retained vision [1]: ~80%
